# From ChEMBL document CHEMBL4837257, “Discovery of the Oxadiazine FRM-024: A Potent CNS-Penetrant Gamma Secretase Modulator” (J Med Chem, 2021)
# What was measured:
# [1] = Toxicity in guinea pig assessed as reduction in heart flow rate by Langendorff test; format: tissue-based, Cavia porcellus; details: in vivo
# [2] = target: 5-hydroxytryptamine receptor 2B (Homo sapiens) (UniProt P41595); assay: Inhibition of serotonin 2B receptor (unknown origin) at 10 uM relative to control
# [3] = Toxicity in rat assessed as effect on cardiac compliance by telemetry; details: in vivo
# [4] = Toxicity in human cardiomyocyte assessed as change in cell health parameters upto 10 uM; details: stem cell-derived cardiomyocyte
# [5] = Cmax in rat at 3 mg/kg, po; format: ADME, organism-based; design: route oral, dose 3 mg/kg; details: in vivo
# [6] = test system: Rattus norvegicus; assay: In vivo modulation of gamma secretase in rat assessed as reduction in Abeta37 levels in CSF by measuring AUC(0 to 24 hrs) at 30 mg/kg, po by ELISA; format: functional, Cerebrospinal fluid; design: scale not given: the % may be the effect or the level left
# [7] = test system: Mus musculus; assay: In vivo modulation of gamma secretase in mouse assessed as reduction in Abeta42 levels in brain at 30 mg/kg, po measured after 6 hrs relative to control; format: functional; design: scale not given: the % may be the effect or the level left
# [8] = AUClast in nonhuman primate at 10 mg/kg, po; format: ADME, organism-based; design: time 0 - last, route oral, dose 10 mg/kg; details: primates, in vivo
# [9] = Toxicity in rat assessed as effect on cardiac output by telemetry; details: in vivo
# [10] = Clearance in rat blood relative to hepatic blood flow; format: ADME, tissue-based
# [11] = target: Gamma-secretase; assay: (§1) Modulation of gamma-secretase in human H4 cells expressing human wild type APP751 assessed as reduction in amyloid beta42 level incubated overnight by ELISA; format: cell-based
# [12] = target: Gamma-secretase (Homo sapiens) (UniProt Q96BI3+Q9NZ42+Q8WW43+P49768+Q92542+P49810); assay: as §1; format: cell-based; details: filed as modulator
# [13] = Clearance in dog at 0.5 mg/kg, iv; format: ADME, organism-based, Canis lupus familiaris; details: in vivo
# [14] = In vivo modulation of gamma secretase in nonhuman primate assessed as reduction in Abeta42 levels in CSF at 30 mg/kg, po measured after 12 hrs by ELISA relative to control; format: functional, Primates, Cerebrospinal fluid; design: scale not given: the % may be the effect or the level left
# [15] = target: T1, Cytochrome P450 2C8 (Homo sapiens, UniProt P10632); assay: Inhibition of CYP2C8 (unknown origin); format: ADME
# T1 sequence (P10632 whole entry): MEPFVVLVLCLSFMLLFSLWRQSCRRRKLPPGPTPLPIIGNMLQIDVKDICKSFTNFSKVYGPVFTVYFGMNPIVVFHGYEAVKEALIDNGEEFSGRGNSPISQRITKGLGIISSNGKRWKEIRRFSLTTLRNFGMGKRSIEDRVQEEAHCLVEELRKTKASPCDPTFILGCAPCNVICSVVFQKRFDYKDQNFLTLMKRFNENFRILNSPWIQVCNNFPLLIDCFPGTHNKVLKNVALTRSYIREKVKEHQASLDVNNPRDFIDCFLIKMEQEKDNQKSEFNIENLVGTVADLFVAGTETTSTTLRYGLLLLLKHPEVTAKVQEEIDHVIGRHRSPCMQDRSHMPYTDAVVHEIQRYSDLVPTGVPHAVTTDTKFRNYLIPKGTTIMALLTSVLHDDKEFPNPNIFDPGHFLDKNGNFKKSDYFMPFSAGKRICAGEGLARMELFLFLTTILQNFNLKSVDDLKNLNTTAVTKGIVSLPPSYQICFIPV
# [16] = Toxicity in guinea pig assessed as effect on repolarization in heart by Langendorff test; format: tissue-based, Cavia porcellus; details: in vivo
# [17] = test system: Rattus norvegicus; assay: In vivo modulation of gamma secretase in rat assessed as reduction in Abeta42 levels in CSF at 30 mg/kg, po measured at 9 hrs by ELISA relative to control; format: functional, Cerebrospinal fluid; design: scale not given: the % may be the effect or the level left
# [18] = Volume of distribution at steady state in rat at 1 mg/kg, iv; format: ADME, organism-based; details: in vivo, read-out: Vdss
# [19] = target: D(2) dopamine receptor (Homo sapiens) (UniProt P14416); assay: Inhibition of dopamine 2-like receptor (unknown origin) at 10 uM relative to control
# [20] = test system: Rattus norvegicus; assay: In vivo modulation of gamma secretase in rat assessed as reduction in Abeta37 levels in brain by measuring AUC(0 to 24 hrs) at 30 mg/kg, po by ELISA; format: functional; design: scale not given: the % may be the effect or the level left
# [21] = Drug metabolism in rat hepatocytes assessed as mono and di-oxidative metabolites formation after 4 hrs; format: ADME, cell-based, Hepatocyte
# [22] = target: Cytochrome P450 2C9 (Homo sapiens, UniProt P11712); assay: Inhibition of CYP2C9 (unknown origin); format: ADME
# [23] = Volume of distribution at steady state in dog at 0.5 mg/kg, iv; format: ADME, organism-based, Canis lupus familiaris; details: in vivo, read-out: Vdss
# [24] = Half life in rat at 1 mg/kg, iv; format: ADME, organism-based; details: in vivo
# [25] = Apparent permeability across apical to basolateral side in MDCK-MDR1 cells; format: ADME, cell-based, Canis lupus familiaris; details: dog
# [26] = target: Vasopressin V1a receptor (Homo sapiens) (UniProt P37288); assay: Inhibition of vasopressin 1A receptor (unknown origin) at 10 uM relative to control
# [27] = Genotoxicity in Salmonella typhimurium by mini-Ames test; format: toxicity; details: salmonella enterica subsp. enterica serovar typhimurium
# [28] = target: Cytochrome P450 2D6 (Homo sapiens, UniProt P10635); assay: Inhibition of CYP2D6 (unknown origin); format: ADME
# [29] = Unbound clearance in human hepatocytes; format: ADME, cell-based, Hepatocyte
# [30] = species: Homo sapiens; assay: Inhibition of adenosine transporter (unknown origin) at 10 uM relative to control
# [31] = In vivo modulation of gamma secretase in nonhuman primate assessed as reduction in Abeta42 levels in CSF by measuring AUC(0 to 48 hrs) at 30 mg/kg, po by ELISA; format: functional, Primates, Cerebrospinal fluid; design: scale not given: the % may be the effect or the level left
# [32] = test system: Rattus norvegicus; assay: In vivo modulation of gamma secretase in rat assessed as reduction in Abeta40 levels in brain at 30 mg/kg, po measured at 16 hrs by ELISA relative to control; format: functional; design: scale not given: the % may be the effect or the level left
# [33] = Cmax in nonhuman primate at 10 mg/kg, po; format: ADME, organism-based; design: route oral, dose 10 mg/kg; details: primates, in vivo
# [34] = Toxicity in guinea pig assessed as effect on sino-atrial node function in heart by Langendorff test; format: tissue-based, Cavia porcellus; details: in vivo
# [35] = target: Cannabinoid receptor 1 (Homo sapiens) (UniProt P21554); assay: Inhibition of Cannabinoid receptor 1 (unknown origin) at 10 uM relative to control
# [36] = target: Sodium-dependent serotonin transporter (Homo sapiens) (UniProt P31645); assay: Inhibition of serotonin transporter (unknown origin) at 10 uM relative to control
# [37] = target: Cytochrome P450 2C19 (Homo sapiens, UniProt P33261); assay: Inhibition of CYP2C19 (unknown origin); format: ADME
# [38] = species: Homo sapiens; assay: Inhibition of sodium channel (unknown origin) at 10 uM relative to control
# [39] = target: Gamma-secretase; assay: Inhibition of gamma secretase (unknown origin) assessed as reduction in notch cleavage; format: functional, Homo sapiens
# Sequence of 5-hydroxytryptamine receptor 2B (Homo sapiens) (P41595 whole entry): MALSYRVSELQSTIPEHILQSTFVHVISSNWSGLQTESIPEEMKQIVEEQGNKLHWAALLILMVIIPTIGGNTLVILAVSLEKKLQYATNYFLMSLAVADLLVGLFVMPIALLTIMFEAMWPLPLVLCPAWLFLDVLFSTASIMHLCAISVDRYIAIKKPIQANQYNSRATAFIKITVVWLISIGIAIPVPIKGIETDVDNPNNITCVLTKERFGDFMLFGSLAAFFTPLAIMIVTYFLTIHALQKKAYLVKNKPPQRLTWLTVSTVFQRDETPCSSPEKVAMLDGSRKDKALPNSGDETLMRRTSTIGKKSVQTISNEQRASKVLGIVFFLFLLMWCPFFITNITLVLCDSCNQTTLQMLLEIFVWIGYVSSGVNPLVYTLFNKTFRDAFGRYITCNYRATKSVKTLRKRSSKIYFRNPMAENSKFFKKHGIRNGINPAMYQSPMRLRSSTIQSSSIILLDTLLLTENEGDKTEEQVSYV
# Sequence of Sodium-dependent serotonin transporter (Homo sapiens) (P31645 whole entry, looked up): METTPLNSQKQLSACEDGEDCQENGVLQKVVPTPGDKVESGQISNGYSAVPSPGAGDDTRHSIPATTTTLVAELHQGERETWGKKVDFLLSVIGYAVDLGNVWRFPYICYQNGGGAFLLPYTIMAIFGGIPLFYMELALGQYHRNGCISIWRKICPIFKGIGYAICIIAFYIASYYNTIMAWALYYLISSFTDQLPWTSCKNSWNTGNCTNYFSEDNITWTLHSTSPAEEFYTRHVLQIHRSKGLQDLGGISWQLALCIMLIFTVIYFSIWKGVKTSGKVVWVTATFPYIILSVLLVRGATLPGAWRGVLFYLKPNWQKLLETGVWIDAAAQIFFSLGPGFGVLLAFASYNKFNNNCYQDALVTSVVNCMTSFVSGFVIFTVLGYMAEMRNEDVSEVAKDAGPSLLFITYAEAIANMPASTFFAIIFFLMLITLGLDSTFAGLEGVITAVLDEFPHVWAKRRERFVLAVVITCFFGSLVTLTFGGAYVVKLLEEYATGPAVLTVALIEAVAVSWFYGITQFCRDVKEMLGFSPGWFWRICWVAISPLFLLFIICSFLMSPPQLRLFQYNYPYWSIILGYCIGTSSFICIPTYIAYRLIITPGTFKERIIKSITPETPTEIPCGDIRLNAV
# Sequence of Cytochrome P450 2D6 (P10635 whole entry): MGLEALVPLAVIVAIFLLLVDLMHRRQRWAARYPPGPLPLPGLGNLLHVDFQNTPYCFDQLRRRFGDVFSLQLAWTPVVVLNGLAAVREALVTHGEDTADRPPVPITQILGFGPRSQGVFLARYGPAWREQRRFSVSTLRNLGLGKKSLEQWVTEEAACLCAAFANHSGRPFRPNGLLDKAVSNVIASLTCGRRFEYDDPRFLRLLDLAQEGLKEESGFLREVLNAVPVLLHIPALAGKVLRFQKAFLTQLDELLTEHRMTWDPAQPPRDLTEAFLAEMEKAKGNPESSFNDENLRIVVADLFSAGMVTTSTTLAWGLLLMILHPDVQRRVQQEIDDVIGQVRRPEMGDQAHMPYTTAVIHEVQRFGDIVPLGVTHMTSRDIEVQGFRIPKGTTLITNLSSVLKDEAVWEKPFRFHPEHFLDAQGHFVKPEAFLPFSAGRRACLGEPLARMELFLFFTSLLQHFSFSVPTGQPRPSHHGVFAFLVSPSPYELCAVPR
# Sequence of Vasopressin V1a receptor (Homo sapiens) (P37288 whole entry, looked up): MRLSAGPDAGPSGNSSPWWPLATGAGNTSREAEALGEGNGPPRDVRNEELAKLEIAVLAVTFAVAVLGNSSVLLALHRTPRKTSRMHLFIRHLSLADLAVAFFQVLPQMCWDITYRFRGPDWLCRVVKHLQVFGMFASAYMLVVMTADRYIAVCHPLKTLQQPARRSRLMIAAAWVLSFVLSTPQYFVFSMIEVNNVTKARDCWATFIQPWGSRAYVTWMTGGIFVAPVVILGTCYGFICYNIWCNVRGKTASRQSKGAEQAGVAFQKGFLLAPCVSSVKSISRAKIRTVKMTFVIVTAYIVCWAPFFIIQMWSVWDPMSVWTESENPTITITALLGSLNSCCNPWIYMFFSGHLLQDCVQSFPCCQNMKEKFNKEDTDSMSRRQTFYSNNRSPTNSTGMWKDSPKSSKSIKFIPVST
# Sequence of Cannabinoid receptor 1 (Homo sapiens) (P21554 whole entry): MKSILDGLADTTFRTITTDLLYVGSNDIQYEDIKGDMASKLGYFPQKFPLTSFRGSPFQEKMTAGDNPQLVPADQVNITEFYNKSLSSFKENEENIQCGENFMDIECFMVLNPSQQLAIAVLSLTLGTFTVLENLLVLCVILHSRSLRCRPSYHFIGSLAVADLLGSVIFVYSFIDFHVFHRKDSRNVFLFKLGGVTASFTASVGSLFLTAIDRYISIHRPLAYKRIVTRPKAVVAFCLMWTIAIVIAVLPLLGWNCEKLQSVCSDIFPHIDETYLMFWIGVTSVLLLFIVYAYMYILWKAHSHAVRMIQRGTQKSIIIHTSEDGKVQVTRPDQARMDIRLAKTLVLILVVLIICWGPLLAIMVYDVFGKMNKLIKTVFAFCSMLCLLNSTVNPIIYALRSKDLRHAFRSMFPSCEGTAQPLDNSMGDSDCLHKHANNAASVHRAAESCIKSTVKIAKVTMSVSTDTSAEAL
# Sequence of Cytochrome P450 2C19 (P33261 whole entry): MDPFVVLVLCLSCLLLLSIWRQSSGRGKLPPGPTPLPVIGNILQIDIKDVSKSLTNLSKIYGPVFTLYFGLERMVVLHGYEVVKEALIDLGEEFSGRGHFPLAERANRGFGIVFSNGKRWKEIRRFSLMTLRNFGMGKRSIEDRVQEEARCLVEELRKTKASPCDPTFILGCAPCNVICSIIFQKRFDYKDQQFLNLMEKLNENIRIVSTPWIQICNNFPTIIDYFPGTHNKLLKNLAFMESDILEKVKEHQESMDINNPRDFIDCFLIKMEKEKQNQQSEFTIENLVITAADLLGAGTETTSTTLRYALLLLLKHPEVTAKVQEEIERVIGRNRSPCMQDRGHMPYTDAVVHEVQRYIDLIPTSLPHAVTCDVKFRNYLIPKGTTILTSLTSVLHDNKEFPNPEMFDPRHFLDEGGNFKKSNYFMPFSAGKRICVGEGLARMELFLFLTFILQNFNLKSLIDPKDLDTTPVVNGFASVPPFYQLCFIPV
# Sequence of Cytochrome P450 2C9 (P11712 whole entry): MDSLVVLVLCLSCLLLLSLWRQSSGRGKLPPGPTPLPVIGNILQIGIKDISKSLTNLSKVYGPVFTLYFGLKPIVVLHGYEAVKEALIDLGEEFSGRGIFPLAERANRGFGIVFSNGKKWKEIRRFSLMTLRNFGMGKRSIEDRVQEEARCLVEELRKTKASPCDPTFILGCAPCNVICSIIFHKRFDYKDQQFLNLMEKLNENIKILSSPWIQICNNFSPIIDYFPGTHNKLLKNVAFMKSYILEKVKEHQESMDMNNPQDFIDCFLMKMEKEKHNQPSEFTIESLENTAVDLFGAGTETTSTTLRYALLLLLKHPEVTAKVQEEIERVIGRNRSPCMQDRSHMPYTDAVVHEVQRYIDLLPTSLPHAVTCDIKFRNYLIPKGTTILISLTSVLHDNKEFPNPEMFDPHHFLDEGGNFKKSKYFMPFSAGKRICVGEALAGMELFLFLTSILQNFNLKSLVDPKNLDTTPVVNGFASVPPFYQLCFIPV
# Sequence of D(2) dopamine receptor (Homo sapiens) (P14416 whole entry): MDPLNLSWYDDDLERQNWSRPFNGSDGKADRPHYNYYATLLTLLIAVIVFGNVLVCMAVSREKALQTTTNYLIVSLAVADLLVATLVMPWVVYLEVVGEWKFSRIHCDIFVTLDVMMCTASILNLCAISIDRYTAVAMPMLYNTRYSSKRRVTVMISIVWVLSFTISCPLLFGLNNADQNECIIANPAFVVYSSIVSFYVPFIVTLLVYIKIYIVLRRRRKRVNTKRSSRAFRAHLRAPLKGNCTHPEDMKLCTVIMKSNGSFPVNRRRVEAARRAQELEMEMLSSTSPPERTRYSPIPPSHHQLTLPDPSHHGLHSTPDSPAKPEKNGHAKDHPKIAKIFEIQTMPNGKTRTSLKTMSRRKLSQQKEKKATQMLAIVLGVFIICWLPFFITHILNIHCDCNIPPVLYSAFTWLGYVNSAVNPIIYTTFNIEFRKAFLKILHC
structure (smiles),measurement,setting,value
COc1nc(C2=NOC(C3CC3)C(c3ccc(Cl)cc3)N2)ccc1-n1cnc(C)c1 (centres undefined),Activity,[1],Non-Toxic
same,inhibition,[2],> 50%
same,Activity,[3],Non-Toxic
same,Activity,[4],Non-Toxic
same,Cmax,[5],0.754 µM
same,Activity,[6],380%
same,Activity,[7],51%
same,AUC(0-t),[8],55.9 µM·h
same,Activity,[9],Non-Toxic
same,CL,[10],< 20%
same,EC50,[11],0.009 µM
same,EC90,[12],0.123 µM
same,clearance,[13],3.4 mL/min/kg
same,Activity,[14],92%
same,IC50,[15],2.6 µM
same,Activity,[16],Non-Toxic
same,Activity,[17],91%
same,Vd,[18],2.4 L/kg
same,inhibition,[19],> 50%
same,Activity,[20],88%
same,Drug metabolism,[21],Metabolite_Detected
same,IC50,[22],≥ 14 µM
same,Vd,[23],0.8 L/kg
same,half-life,[24],8.7 h
same,Papp A→B,[25],34 ×10⁻⁶ cm/s
same,inhibition,[26],> 50%
same,Activity,[27],Non-Toxic
same,IC50,[28],4.5 µM
same,CL free,[29],4 mL/min/kg
same,inhibition,[30],> 50%
same,Activity,[31],63%
same,Activity,[32],36%
same,Cmax,[33],6.09 µM
same,Activity,[34],Non-Toxic
same,inhibition,[35],> 50%
same,inhibition,[36],> 50%
same,IC50,[37],9.1 µM
same,inhibition,[38],> 50%
same,IC50,[39],> 10 µM
